Where two headings read alike, the source gives them in different places.
Assays:
Aβ in lumbar CSF = settings: oral dosing of 30 or 90 mg; cited from earlier work
[1] = healthy volunteers; cited from earlier work
CSF Aβ40 = settings: healthy individuals, 36 h post-dose, cited from earlier work
[2] = phase 1, healthy individuals; cited from earlier work
[3] = cited from earlier work
[4] = tested on: pigment epithelium of the rat's eye; settings: higher compound dose given for three months; cited from earlier work
human recombinant BACE1 = human recombinant BACE1 (Homo sapiens (Human), UniProt P56817); assay: In vitro enzymatic BACE1 FRET assay; assay type: biochemical; settings: read-out: IC50 IP (μM) BACE1 enzyme
Chain of human recombinant BACE1 (P56817 46-501): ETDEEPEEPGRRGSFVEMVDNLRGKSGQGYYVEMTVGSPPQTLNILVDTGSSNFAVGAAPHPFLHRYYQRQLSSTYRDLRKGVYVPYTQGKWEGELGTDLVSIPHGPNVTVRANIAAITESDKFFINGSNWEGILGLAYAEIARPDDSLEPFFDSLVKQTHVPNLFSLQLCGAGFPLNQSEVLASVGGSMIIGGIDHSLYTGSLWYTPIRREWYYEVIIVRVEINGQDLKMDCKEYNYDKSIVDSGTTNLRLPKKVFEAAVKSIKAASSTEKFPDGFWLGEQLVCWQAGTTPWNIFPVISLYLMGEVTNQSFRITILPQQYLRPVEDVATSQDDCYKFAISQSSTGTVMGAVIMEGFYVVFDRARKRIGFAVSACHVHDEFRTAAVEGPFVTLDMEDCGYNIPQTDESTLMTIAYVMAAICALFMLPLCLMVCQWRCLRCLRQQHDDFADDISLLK
Method in brief: (§1)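 Tris addition raises the pH to neutral to stop the reaction before fluorescence is measured at 590 nm emission with 488 nm excitation.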

Aβ 40 in rat brain = assay: In vivo inhibition of beta-secretase: Aβ40 reduction in rat brain; settings: after 4 h
Method in brief: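 Rats were dosed by oral gavage at up to 100 mg/kg in 2% HPMC, 1% Tween80, pH 2.2, with vehicle-only controls. Supernatant Aβ40 was measured by ECL sandwich ELISA with biotinylated-4G8 capture and C-terminal Fab40 detection.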

Recombinant Cat D = Recombinant Cat D (Homo sapiens (Human), UniProt P07339); assay: In vitro enzymatic Cathepsin D (Cat D) FRET assay; assay type: biochemical; settings: read-out: IC50 IP (μM) CatD
Chain of Recombinant Cat D (P07339 65-412): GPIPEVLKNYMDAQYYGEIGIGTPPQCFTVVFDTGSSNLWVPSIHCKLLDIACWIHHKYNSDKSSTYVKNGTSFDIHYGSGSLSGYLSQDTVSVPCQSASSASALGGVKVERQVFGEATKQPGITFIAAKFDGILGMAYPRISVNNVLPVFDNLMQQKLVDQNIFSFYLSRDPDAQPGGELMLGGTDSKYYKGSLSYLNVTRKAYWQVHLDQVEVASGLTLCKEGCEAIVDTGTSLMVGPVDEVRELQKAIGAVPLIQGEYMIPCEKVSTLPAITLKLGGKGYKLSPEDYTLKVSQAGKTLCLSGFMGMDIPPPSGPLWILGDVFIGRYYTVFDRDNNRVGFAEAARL
Method in brief: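 Assay pH is 3.5 (0.05 M citrate, 5 mM CHAPS, 10% DMSO final) with Cat D from CHO cells. A 20 nM quenched peptide substrate is cleaved over one hour; the reaction is ended with Tris and read by fluorescence (ex 500, em 580 nm).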

Aβ 40 in rat CSF = assay: In vivo inhibition of beta-secretase: Aβ40 reduction in rat CSF; settings: after 4 h
Method in brief: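 Male Sprague Dawley rats (200 g) dosed orally in 2% HPMC, 1% Tween80, pH 2.2, at 3, 10 or 30 mg/kg; CSF and brain taken 4 h later. Brain homogenate centrifuged at 355,000 g; Aβ40 measured by ECL sandwich ELISA (4G8 capture, Abeta40 C-terminal Fab detection), as % reduction versus vehicle controls.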

human recombinant BACE2 = human recombinant BACE2 (Homo sapiens (Human), UniProt Q9Y5Z0); assay: In vitro enzymatic BACE2 FRET assay; assay type: biochemical; settings: read-out: IC50 IP (μM) BACE2 enzyme
Chain of human recombinant BACE2 (Q9Y5Z0 63-518): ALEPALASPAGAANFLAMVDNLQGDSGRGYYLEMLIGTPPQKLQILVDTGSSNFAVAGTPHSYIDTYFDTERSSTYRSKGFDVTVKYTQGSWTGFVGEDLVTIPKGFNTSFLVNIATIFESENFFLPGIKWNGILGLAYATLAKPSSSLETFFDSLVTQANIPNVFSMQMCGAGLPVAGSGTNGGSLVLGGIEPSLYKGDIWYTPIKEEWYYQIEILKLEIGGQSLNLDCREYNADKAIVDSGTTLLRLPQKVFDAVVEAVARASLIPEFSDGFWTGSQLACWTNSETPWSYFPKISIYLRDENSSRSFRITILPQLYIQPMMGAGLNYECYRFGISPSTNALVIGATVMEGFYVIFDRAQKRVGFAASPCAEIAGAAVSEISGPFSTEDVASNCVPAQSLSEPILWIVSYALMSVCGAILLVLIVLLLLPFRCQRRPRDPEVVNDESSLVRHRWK
Method in brief: as §1

[5] = tested on: Aβ40 in conditioned medium of cells stably expressing Amyloid Precursor Protein (APP); assay: In vitro BACE-1 cell-based assay (Aβ40 sandwich ELISA); settings: read-out: IC50 IP (μM) BACE1 cell
Method in brief: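 Read-out: time-resolved fluorescence (Streptavidin-Europium) of Aβ40 captured by pAb40 and detected with biotinylated 6E10 from supernatants of APP-stable cells. Cells were exposed to compound for 24 h, 10-point dose response, top dose 100 μM or 10 μM, 0.1% DMSO. IC50 fitted to percent of control.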

SMILES	IC50 (human recombinant BACE1; BACE1 FRET enzyme assay) [µM]	IC50 (Recombinant Cat D; Cathepsin D FRET enzyme assay) [µM]	IC50 (human recombinant BACE2; BACE2 FRET enzyme assay) [µM]	IC50 ([5]; BACE1 cell-based assay) [µM]	IC50 (human recombinant BACE1) [µM]	IC50 (Recombinant Cat D) [µM]	IC50 (human recombinant BACE2) [µM]	IC50 [5] [µM]	% Aβ 40 reduction in rat brain at 10 mpk (Aβ 40 in rat brain) [%]	% Aβ 40 reduction in rat CSF at 10 mpk (Aβ 40 in rat CSF) [%]	other results
C[C@@]1(c2cc(-c3cncnc3)c(F)cc2F)CCSC(N)=N1 [LY2811376, (S)-4-(2,4-difluoro-5-pyrimidin-5-yl-phenyl)-4-methyl-5,6-dihydro-4H-[1,3]thiazin-2-ylamine]											Aβ reductions in lumbar CSF (Aβ in lumbar CSF): Prominent and long-lasting Aβ reductions; safety and tolerability [1]: safe and well tolerated
CN1C(=N)N[C@](C)(c2cc(NC(=O)c3ccc(F)cn3)ccc2F)CS1(=O)=O [MK-8931]											reduction of CSF Aβ40 concentrations (CSF Aβ40; single dose of 100 mg): 75%; reduction of CSF Aβ40 concentrations (CSF Aβ40; single dose of 550 mg): 92%; tolerability [2]: generally well tolerated
C[C@@]1(c2cc(-c3cncnc3)c(F)cc2F)CCSC(N)=N1 [LY 2811376]											eye assessments of people from the Ph I dosing trial [3]: did not show any abnormalities; retinal toxicity finding in rat toxicology studies [4]: damaged the pigment epithelium of the rat's eye
C#CCOc1cnc(C(=O)Nc2cc(F)c(F)c([C@@]3(C)N=C(N)S[C@H]4C[C@H]43)c2)cn1 [Example 23, N-(3-((1S,5S,6S)-3-amino-5-methyl-2-thia-4-azabicyclo[4.1.0]hept-3-en-5-yl)-4,5-difluorophenyl)-5-(2-propyn-1-yloxy)-2-pyrazinecarboxamide]	0.00047	81.9	0.0374	0.00062							% Aβ 40 reduction in rat brain (3 mpk) (Aβ 40 in rat brain; 3 mpk): 61 (3 mpk) %; % Aβ 40 reduction in rat CSF (3 mpk) (Aβ 40 in rat CSF; 3 mpk): 70 (3 mpk) %

Second part, led by results:

IC50 (human recombinant BACE1; BACE1 FRET enzyme assay) [µM]	IC50 (Recombinant Cat D; Cathepsin D FRET enzyme assay) [µM]	IC50 (human recombinant BACE2; BACE2 FRET enzyme assay) [µM]	IC50 ([5]; BACE1 cell-based assay) [µM]	IC50 (human recombinant BACE1) [µM]	IC50 (Recombinant Cat D) [µM]	IC50 (human recombinant BACE2) [µM]	IC50 [5] [µM]	SMILES	% Aβ 40 reduction in rat brain at 10 mpk (Aβ 40 in rat brain) [%]	% Aβ 40 reduction in rat CSF at 10 mpk (Aβ 40 in rat CSF) [%]	other results
0.00299	> 400	< 0.00203	0.00427					NC1=N[C@](CF)(c2cc(Nc3nccc4cc(Cl)cnc34)ccc2F)[C@@H]2C[C@]2(CO)S1 [Example 45, ((1S,5S,6S)-3-amino-5-(5-((3-chloro-1,7-naphthyridin-8-yl)amino)-2-fluorophenyl)-5-(fluoromethyl)-2-thia-4-azabicyclo[4.1.0]hept-3-en-1-yl)methanol]	0	17	
				0.00496	995	0.207	0.00446	Cc1nc(COc2cnc3c(Nc4ccc(F)c([C@@]5(C)N=C(N)S[C@@]6(CF)C[C@H]65)c4)nccc3n2)no1 [Example 828, N-(3-((1S,5S,6S)-3-amino-1-(fluoromethyl)-5-methyl-2-thia-4-azabicyclo[4.1.0]hept-3-en-5-yl)-4-fluorophenyl)-2-((5-methyl-1,2,4-oxadiazol-3-yl)methoxy)pyrido[3,4-b]pyrazin-5-amine]	10	24	
				0.000618	> 400	0.0638	0.00287	C#C[C@H](C)Oc1cnc(C(=O)Nc2ccc(F)c([C@@]3(C)N=C(N)S[C@@]4(COC)C[C@H]43)c2)cn1 [Example 965, N-(3-((1S,5S,6S)-3-amino-1-(methoxymethyl)-5-methyl-2-thia-4-azabicyclo[4.1.0]hept-3-en-5-yl)-4-fluorophenyl)-5-(((1S)-1-methyl-2-propyn-1-yl)oxy)-2-pyrazinecarboxamide]	20	33	
0.00747	> 400	0.0129	0.00437					N#Cc1ccc(C(=O)Nc2ccc(F)c([C@@]3(CF)N=C(N)S[C@H]4C[C@H]43)c2)nc1 [Example 2, N-(3-((1S,5S,6S)-3-amino-5-(fluoromethyl)-2-thia-4-azabicyclo[4.1.0]hept-3-en-5-yl)-4-fluorophenyl)-5-cyano-2-pyridinecarboxamide]	67	72	
				0.000902	633	0.0551	0.0386	C#C[C@H](C)Oc1cnc2c(Nc3cc(F)c(F)c([C@@]4(C)N=C(N)S[C@@]5(C#N)C[C@H]54)c3)nccc2n1 [Example 931, (1S,5S,6S)-3-amino-5-(2,3-difluoro-5-((2-(((1S)-1-methyl-2-propyn-1-yl)oxy)pyrido[3,4-b]pyrazin-5-yl)amino)phenyl)-5-methyl-2-thia-4-azabicyclo[4.1.0]hept-3-ene-1-carbonitrile]	3	8	

— patent US20160046618A1, “Cyclopropyl Fused Thiazin-2-Amine Compounds as Beta-Secretase Inhibitors and Methods of Use” (AMGEN INC., priority 2014, published 2016)
